Type in all cases: biochemical
In one test the target is T1, ERBB2 (Homo sapiens, UniProt P04626).
T1 construct: host or cells: Sf9 insect cells (baculovirus)
The experiment in a line: Radiometric protein kinase assay, ERBB2. Conditions: 1 μM ATP; read-out: Inhibitory activity (IC50:μM) ERBB2. The text has this: (§1) All protein kinases were expressed in Sf9 insect cells as human recombinant GST-fusion proteins or His-tagged proteins by means of the baculovirus expression system. Kinases were purified by affinity chromatography using either GSH-agarose (Sigma) or Ni-NTH-agarose (Qiagen). The purity of each kinase was checked by SDS-PAGE/silver staining and the identity of each kinase was verified by western blot analysis with kinase specific antibodies or by mass spectroscopy.
(§2) A radiometric protein kinase assay (^33PanQinase® Activity Assay) was used for measuring the kinase activity of the 24 protein kinases. […]
(§3) The reaction cocktails were incubated at 30° C. for 80 minutes. […] Incorporation of ^33Pi was determined with a microplate scintillation counter (Microbeta Trilux, Wallac).
(§4) The median value of the counts in column 1 (n=8) of each assay plate was defined as “low control”. This value reflects unspecific binding of radioactivity to the plate in the absence of a protein kinase but in the presence of the substrate. […]
(§5) As part of the data evaluation the low control value from a particular plate was subtracted from the high control value as well as from all 80 “compound values” of the corresponding plate. The residual activity (in %) for each well of a particular plate was calculated by using the following formula: Res. Activity (%)=100×[(cpm of compound−low control)/(high control−low control)] […]

A further test deals with T2, FLT3 (Homo sapiens, UniProt P36888).
T2 construct: host or cells: Sf9 insect cells (baculovirus)
T2 sequence (P36888 27-993): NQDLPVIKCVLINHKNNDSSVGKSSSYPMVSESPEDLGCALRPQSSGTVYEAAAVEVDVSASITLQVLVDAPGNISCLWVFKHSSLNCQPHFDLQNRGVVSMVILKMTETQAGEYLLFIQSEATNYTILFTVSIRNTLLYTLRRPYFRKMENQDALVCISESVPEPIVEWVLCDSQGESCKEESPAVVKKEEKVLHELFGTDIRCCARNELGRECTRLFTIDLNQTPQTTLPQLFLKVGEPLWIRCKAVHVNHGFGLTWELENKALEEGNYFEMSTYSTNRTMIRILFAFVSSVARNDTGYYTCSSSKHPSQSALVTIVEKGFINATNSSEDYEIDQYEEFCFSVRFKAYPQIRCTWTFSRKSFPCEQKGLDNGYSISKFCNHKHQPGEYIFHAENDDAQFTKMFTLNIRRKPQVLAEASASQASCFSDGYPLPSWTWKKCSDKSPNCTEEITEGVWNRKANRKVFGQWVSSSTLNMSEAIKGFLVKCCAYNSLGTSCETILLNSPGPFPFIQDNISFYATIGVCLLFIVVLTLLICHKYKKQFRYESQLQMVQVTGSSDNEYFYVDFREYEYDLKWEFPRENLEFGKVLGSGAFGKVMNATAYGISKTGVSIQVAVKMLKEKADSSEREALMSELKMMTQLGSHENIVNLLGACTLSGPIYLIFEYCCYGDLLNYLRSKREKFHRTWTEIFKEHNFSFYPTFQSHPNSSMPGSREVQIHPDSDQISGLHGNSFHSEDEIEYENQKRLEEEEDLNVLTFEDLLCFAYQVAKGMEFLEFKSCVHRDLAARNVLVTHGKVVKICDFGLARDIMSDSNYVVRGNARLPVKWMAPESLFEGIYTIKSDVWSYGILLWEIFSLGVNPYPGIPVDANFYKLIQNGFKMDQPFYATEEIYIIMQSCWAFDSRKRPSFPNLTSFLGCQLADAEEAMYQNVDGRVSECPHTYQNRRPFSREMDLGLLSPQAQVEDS
The experiment in a line: Radiometric protein kinase assay, FLT3. To be noted: 1 μM ATP; read-out: Inhibitory activity (IC50:μM) FLT3.
Description: as §1
(§6) A radiometric protein kinase assay (^33PanQinase® Activity Assay) was used for measuring the kinase activity of the 24 protein kinases. All kinase assays were performed in 96-well FlashPlates™ from Perkin Elmer (Boston, Mass., USA) in a 50 μl reaction volume. The reaction cocktail was pipetted in 4 steps in the following order: • 20 μl of assay buffer • 5 μl of ATP solution (in H2O) • 5 μl of test compound (in 10% DMSO) • 10 μl of substrate/10 […] of enzyme solution (premixed)
(§7) The assay for all enzymes contained 60 mM HEPES-NaOH, pH 7.5, 3 mM MgCl2, 3 mM MnCl2, 3 μM Na-orthovanadate, 1.2 mM DTT, 50 μg/ml PEG20000, 1 μM [γ-^33P]-ATP (approx. 5×10^05 cpm per well).
(§8) For the 24 kinase assays, the following amounts of enzyme and substrate were used per well:
(§9) The reaction cocktails were incubated at 30° C. for 80 minutes. The reaction was stopped with 50 μl of 2% (v/v) H3PO4, plates were aspirated and washed two times with 200 μl of 0.9% (w/v) NaCl or 200 μl H2O. Incorporation of ^33Pi was determined with a microplate scintillation counter (Microbeta Trilux, Wallac).
(§10) The median value of the counts in column 1 (n=8) of each assay plate was defined as “low control”. This value reflects unspecific binding of radioactivity to the plate in the absence of a protein kinase but in the presence of the substrate. The median value of the counts in column 7 of each assay plate (n=8) was taken as the “high control”, i.e. full activity in the absence of any inhibitor. The difference between high and low control was taken as 100% activity.
(§11) As part of the data evaluation the low control value from a particular plate was subtracted from the high control value as well as from all 80 “compound values” of the corresponding plate. The residual activity (in %) for each well of a particular plate was calculated by using the following formula: Res. Activity (%)=100×[(cpm of compound−low control)/(high control−low control)]
(§12) The residual activities for each concentration and the compound IC50 values were calculated using Quattro Workflow V2.1.0.0 (Quattro Research GmbH, Munich, Germany; www.quattro-research.com). The model used was “Sigmoidal response (variable slope)” with parameters “top” fixed at 100% and “bottom” at 0%.

The next test concerns the target T3, INS-R (Homo sapiens, UniProt P06213).
T3 construct: host or cells: Sf9 insect cells (baculovirus)
The experiment in a line: Radiometric protein kinase assay, INS-R. Conditions: 1 μM ATP; read-out: Inhibitory activity (IC50:μM) INS-R.
Description: as §1, §2, §3, §4, §5

A further test deals with T4, SRC (Homo sapiens, UniProt P12931).
T4 construct: host or cells: Sf9 insect cells (baculovirus)
T4 sequence (P12931 whole entry): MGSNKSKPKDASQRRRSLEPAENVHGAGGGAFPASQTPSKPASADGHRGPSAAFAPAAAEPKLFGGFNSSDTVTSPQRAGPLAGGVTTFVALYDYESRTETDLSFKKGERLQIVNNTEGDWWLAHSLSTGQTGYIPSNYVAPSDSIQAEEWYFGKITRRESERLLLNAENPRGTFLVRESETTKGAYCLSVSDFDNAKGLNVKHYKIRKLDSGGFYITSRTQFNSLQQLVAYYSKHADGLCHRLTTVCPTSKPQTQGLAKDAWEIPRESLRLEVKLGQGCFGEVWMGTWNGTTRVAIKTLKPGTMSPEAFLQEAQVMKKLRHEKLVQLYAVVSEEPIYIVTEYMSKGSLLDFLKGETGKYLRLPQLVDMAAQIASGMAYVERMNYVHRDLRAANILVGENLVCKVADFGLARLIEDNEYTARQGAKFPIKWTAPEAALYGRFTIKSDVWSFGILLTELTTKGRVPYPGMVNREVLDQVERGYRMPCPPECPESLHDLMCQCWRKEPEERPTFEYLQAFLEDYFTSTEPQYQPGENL
The experiment in a line: Radiometric protein kinase assay, SRC. Conditions: 1 μM ATP; read-out: Inhibitory activity (IC50:μM) SRC.
Description: as §1, §6, §7, §8, §9, §10, §11, §12

Another test addresses T5, B-RAF-VE (Homo sapiens, UniProt P15056, V600E).
T5 construct: host or cells: Sf9 insect cells (baculovirus)
The experiment in a line: Radiometric protein kinase assay, B-RAF-VE. Conditions: 1 μM ATP; read-out: Inhibitory activity (IC50:μM) B-RAF-VE.
Description: as §1, §2, §3, §4, §5

What is called IC50 is the concentration needed to halve the response being measured.

Each structure is given as a SMILES string.

T1 sequence (P04626 23-1255): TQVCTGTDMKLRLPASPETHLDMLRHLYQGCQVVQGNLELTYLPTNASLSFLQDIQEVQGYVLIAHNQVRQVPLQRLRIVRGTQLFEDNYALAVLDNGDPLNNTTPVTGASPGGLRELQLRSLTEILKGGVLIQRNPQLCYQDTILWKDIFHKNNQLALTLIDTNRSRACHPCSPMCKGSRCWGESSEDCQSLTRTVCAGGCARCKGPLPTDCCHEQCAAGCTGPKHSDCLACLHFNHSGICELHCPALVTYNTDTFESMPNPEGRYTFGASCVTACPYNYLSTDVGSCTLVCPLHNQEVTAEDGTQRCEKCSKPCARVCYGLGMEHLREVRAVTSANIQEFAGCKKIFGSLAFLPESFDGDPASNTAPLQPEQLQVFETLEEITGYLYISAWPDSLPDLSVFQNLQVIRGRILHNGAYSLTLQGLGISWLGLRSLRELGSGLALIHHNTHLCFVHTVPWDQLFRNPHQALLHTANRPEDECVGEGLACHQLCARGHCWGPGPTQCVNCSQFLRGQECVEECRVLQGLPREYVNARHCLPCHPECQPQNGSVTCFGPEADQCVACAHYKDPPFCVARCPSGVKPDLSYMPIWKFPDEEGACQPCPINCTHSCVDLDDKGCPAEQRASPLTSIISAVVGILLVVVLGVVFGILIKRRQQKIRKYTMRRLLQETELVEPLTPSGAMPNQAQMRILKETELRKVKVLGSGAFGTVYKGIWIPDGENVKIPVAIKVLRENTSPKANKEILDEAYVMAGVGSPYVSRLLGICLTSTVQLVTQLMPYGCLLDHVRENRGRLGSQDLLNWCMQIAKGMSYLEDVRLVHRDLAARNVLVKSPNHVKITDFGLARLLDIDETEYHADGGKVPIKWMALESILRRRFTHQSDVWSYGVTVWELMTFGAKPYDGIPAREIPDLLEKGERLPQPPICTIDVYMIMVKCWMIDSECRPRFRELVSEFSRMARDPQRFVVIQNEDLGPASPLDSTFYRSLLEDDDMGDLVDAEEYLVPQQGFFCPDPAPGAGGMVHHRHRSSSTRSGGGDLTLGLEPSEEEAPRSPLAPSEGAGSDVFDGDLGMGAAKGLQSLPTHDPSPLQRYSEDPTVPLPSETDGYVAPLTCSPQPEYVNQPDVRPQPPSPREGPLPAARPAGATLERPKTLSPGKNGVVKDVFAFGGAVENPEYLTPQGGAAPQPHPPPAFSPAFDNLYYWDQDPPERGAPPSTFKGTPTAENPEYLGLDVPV
T3 sequence (P06213 980-1382 limits assumed): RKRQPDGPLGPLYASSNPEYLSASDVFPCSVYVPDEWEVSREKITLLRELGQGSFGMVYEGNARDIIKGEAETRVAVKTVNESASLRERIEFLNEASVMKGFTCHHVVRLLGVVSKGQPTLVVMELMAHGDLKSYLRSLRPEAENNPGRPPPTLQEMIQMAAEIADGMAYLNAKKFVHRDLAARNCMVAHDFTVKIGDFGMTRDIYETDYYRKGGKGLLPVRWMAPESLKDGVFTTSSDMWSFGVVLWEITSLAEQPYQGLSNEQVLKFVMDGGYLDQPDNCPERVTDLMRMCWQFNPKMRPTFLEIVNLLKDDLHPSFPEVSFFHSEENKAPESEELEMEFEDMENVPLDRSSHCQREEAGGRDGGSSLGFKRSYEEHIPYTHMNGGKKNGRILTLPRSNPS
T5 sequence (P15056 whole entry V600E): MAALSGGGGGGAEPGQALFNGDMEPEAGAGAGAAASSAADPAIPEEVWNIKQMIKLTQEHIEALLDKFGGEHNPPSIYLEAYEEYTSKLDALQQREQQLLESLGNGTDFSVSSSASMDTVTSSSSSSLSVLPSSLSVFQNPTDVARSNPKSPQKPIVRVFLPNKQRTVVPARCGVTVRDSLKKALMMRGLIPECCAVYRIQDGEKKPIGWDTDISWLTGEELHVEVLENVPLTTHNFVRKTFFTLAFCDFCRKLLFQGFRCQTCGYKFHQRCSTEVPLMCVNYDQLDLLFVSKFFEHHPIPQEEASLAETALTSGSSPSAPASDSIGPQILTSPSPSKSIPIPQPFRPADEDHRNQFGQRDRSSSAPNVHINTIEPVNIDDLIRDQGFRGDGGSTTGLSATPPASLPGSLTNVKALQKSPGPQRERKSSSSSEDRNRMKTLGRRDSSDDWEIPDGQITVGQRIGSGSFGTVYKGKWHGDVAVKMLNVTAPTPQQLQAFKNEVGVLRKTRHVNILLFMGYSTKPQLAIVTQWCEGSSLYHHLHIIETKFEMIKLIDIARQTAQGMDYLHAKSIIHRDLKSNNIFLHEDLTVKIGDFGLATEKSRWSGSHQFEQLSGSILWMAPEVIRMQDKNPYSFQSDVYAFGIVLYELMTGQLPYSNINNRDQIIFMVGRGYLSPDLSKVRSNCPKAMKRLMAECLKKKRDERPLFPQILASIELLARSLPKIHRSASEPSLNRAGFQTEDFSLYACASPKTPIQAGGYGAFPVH

For the compound `COC1CC/C=C/C[C@H](c2ccccc2)OC(=O)c2c(O)cc(O)c(Cl)c2CC(=O)C1` (stereo partly shown) [A-2], the values for the IC50 on ERBB2, at FLT3 and at INS-R were 16 µM, 23 µM and 36 µM, respectively.

For the compound `O=C1Cc2c(Cl)c(O)cc(O)c2C(=O)O[C@H](c2ccccc2)C/C=C/CCC(Cl)C1` (stereo partly shown) [A-3], the IC50 at ERBB2 was found to be 24 µM; on FLT3 it was 23 µM; on INS-R, 44 µM; on SRC, 14 µM.

Regarding `CC(C)[C@@H]1CC2OC2CC/C=C/C(=O)Cc2c(Cl)c(O)cc(O)c2C(=O)O1` (stereo partly shown) [A-4], the figures for the IC50 on FLT3 and at SRC were 45 µM and 12 µM, respectively.

On to `O=C1/C=C/CCC2OC2C[C@H](c2ccccc2)OC(=O)c2c(O)cc(O)c(Cl)c2C1` (stereo partly shown) [A-5], for which the IC50 turned out to be 50 µM at B-RAF-VE and 12 µM at SRC.

Regarding `O=C1/C=C/CCC2OC2C[C@@H](Cc2ccccc2)OC(=O)c2c(O)cc(O)cc2C1` (stereo partly shown) [A-6], the IC50 on FLT3 stood at 44 µM; at SRC it was 20 µM.

These data come from patent publication US8450305B2, “Macrocyclic compounds useful as inhibitors of kinases and HSP90” (Universite de Strasbourg, priority 2006, dated 2013).
